Assay results published in patent EP0423240B1, “MODULATION OF VIRUS-HOST CELL INTERACTIONS USING CYCLIC OLIGOSACCHARIDES” (THE TRUSTEES OF THE UNIVERSITY OF PENNSYLVANIA, priority 1988, dated 1990).

How the values were obtained:
[1] = Water solubility at 0°C; format: physicochemical
Procedure: The cyclic oligosaccharide derivatives useful in the present invention are highly hydrophilic and therefore very water soluble. A highly hydrophilic character probably is important to allow interaction with cellular surfaces. The hydrophilic activity is likely roughly indicated by the affinity to water, as measured by water solubility. It is important to measure the same at 0°C since at higher temperatures the most suitable derivative have solubilities so high that meaningful measurements are difficult.

[2] = system: HTLV-IIIb cell free virus; test: Reverse transcriptase assay of HIV infectivity, cell free virus on target cells, 10 day incubation; format: cell-based, HIV-1
Procedure: Figure 2 illustrates the effects of cyclodextrin and cyclodextrin derivatives on HIV infectivity as determined by reverse transcriptase activity. Samples assayed are (A) untreated control cells, (B) β-cyclodextrin unsubstituted ring, (C) partially sulfated β-cyclodextrin ring, (D) propylated β-cyclodextrin ring, (E) sulfated β-cyclodextrin ring, and (F) methylated β-cyclodextrin ring. Numbers indicate 1/2 dilutions of test compounds with 1 = 2.5 mM concentration of compound.
Virus infected cells were pelleted by centrifugation and 50 µl of culture suprenatant was collected from each well for assay. Culture supernatant (25 µl) was plated in 96 well round bottomed plates and 50 µl of transcriptase cocktail was added to each well. Cocktail is 50 mM Tris-HC1, pH 8.0, 20 mM DTT, 0.6 mM MnC1₂, 60 mM NaC1, 0.05% NP-40, 5 µg/ml dt (oligodeoxythymidilic acid), 10 µg/ml poly A (polyriboadenylic acid), 10 µM dTTP, 1 Ci/mm ³²P dTTP. Plates were then incubated for 60 minutes at 37°C. After incubation samples were spotted onto Whatman DEAE-81 paper, washed and analyzed by counting or direct autoradiography.
The ability of cyclodextrins to inhibit HIV infection was assessed in vitro utilizing reverse transcriptase assays as described Section 6.1.2, supra. HTLV-IIIb cell free virus stocks were inoculated onto target cells in the presence or absence of the synthetic compounds.

[3] = system: HIV-1; test: Viral RNA analysis by dot blot; format: cell-based; conditions: 1 mM
Procedure: Virus particles were incubated with target cells in the presence or absence of […] of β-CD-14S. At 72 hours post infection, the cells were washed and dot blot assays were performed to determine the presence or absence of viral RNA production. In (A), target cells were infected in the presence of sulfated β-cyclodextrin (lane A), in the absence of cyclodextrins (lane B), or in the presence of unsubstituted β-cyclodextrin (lane C). 1/2 dilutions of cells are from left to right starting with 10⁶ cell/well utilized. In (B), virally infected cells (+) or uninfected cells (-) were assayed for their ability to produce viral RNA by dot blot analysis. CD = infected cells incubated with 1 mM of β-CD-14S. 1/2 dilutions of cells are from top to bottom starting with 10⁶ cell/well.
Virus treated cells were grown in tissue culture and harvested for assay at 72 hrs. post-infection. The cell concentrations were then adjusted to 1 x 10⁶ cells/m1 with phosphate buffered saline and spotted directly onto prewetted gene screen utilizing a dot blot apparatus. The filter was then fixed in 3% NaC1, 10 mM NaH₂PO₄, (pH 7.2) containing 1% gluteraldehyde at 4°C for 1 hr. The fixed blot was then rinsed three times with proteolytic buffer (50mM EDTA, 0.1 M Tris-HC1 (pH 8.0), 20 µg/ml proteinase K) for 30 minutes at 37°C. The filter was air dried until being probed. A Sall-Xho1 probe derived from the pIIIenv1 plasmid (a generous gift of Dr. J. Sodrofsky) and encoding the envelope region of the HXB2, HIV-1 virus was labeled by the random primer method using standard technology and hybridized to the filter as previously described (Weiner et al., 1986, Cell Immunol. 100:197).
To determine if the cyclodextrins were interfering with steps relevant to viral replication, the ability of these compounds to inhibit viral nucleic acid synthesis was determined. Virus particles were incubated with target cells in the presence or absence of 1 mM of β-CD-14S. At 72 hours post-infection, the cells were washed and dot blot assays were performed to determine the presence or absence of viral RNA production. […]

[4] = system: HIV-1; test: HIV-induced syncytia formation over time, comparison with dextran sulfates; format: cell-based; conditions: during the culture period (48 hours)
Procedure: Figure 6 compares the effects of dextran polysulfate and substituted β-cyclodextrins on HIV infectivity. In (A) degree of syncytia inhibition is shown on the ordinate for each compound added. SUL = 600 µM β-CD-14S, AL = 600 µM unsubstituted β-CD, Pro = 600 µM propoxylated β-CD, 2MET = 300 µM methoxylated β-CD, DS5 = 600 µM dextran sulfate 5,000, DS500 = 600 µM dextran sulfate 500,000. Results for each of 3 time points are shown. In (B) similar results utilizing reverse transcriptase assays are shown. Infectious virus particles were incubated in the presence of sulfated β-cyclodextrin (lane 1), dextran sulfate 5000 (lane 2) or media (lane 3) for 6 days at which time cells were resuspended in fresh media and allowed to incubate a further 10 days before being harvested. Reverse transcriptase activity was assayed as described in Section 6.1, infra. 1/2 dilutions of the compound added are shown from bottom (highest concentration at 2.5 mM) to top (lowest concentration).
For the assay of HIV-1 fusion, Supt T1 cells were used as target cells. They fuse rapidly when cocultured with HIV-1 (H9/IIIb) producing cell lines. For the assay of HIV-2 mediated cell fusion, H9 cells were used as target cells. […] Target cells are then added 5 x 10⁵/well and the number of syncytia are qualitatively determined after the incubation periods described in the text.

beta-cyclodextrin tetradecasulfate [Beta-CD-14S]
Solubility 0°C [1]: 42 g/100ml H₂O
inhibition of viral infectivity (reverse transcriptase activity) ([2]; 1/2 dilutions from 2.5 mM, result in words): extremely effective
concentrations at which some reverse transcriptase activity was apparent ([2]; dilution 4): ≤ 320 µM
concentrations at which reverse transcriptase activity was dramatically inhibited ([2]; dilution 6): ≥ 80 µM
ability of infected cells to produce viral RNA ([3]; already infected cells incubated with compound): not inhibited in their ability to produce viral RNA
HIV-1 specific RNA ([3]; target cells infected in the presence of compound, 72 hours post-infection): little or no HIV-1 specific RNA was detected
anti-syncytial activity [4]: remained unchanged
